The results in this text go back to patent publication US7892755B2, “Screening method” (Takeda Pharmaceutical Company Limited, priority 2004, dated 2011).

One experiment addresses T1, mouse GPR35 (Mus musculus, UniProt Q9ES90, D300Y/S286F).
T1 construct: the digestion product was inserted into plasmid vector pAKKO-111H; expressed in transfected cells; host or cells: CHO-K1 cells
Description: Reactivity on FLIPR, CHO-K1 cells transfected with mouse GPR35 expression vector. The class given is cell-based. The protocol: The CHO-K1 cell line (purchased from ATCC) was incubated in HAM F-12 medium (Invitrogen) supplemented with 10% fetal calf serum, unless otherwise indicated. On the day before transfection, the cells were inoculated at 4.5×10^5/10 cm^2 and incubated at 37° C. for 15 hours or more in a CO2 incubator adjusted to 5% CO2 concentration. Using Lipofectamine reagent (Invitrogen), transfection was performed according to modifications of the procedure attached to the reagent. When a 6-well plate was used as the incubator, the transfection was performed as follows. Two tubes each having a 1.5 ml volume were prepared and 100 μl each of Opti-MEM medium (Invitrogen) was dispensed in each tube. […] The cells obtained were counted and diluted to 5×10^4 cells per 100 μl of the medium. […]
To assay the changes in intracellular calcium levels on FLIPR, the following pretreatment was made. First, an assay buffer was prepared to add fluorescence dye Fluo-3AM (DOJIN) to the cells, or to wash the cells immediately before the FLIPR assay. […] After mixing them, the mixture was added to 10.6 ml of an assay buffer supplemented with 105 μl of fetal calf serum to give a fluorescence dye solution. […]

The target of the next experiment is GPR35 (Homo sapiens, UniProt Q9HC97, S294R). The experiment in a line: Changes in intracellular calcium levels on FLIPR, CHO cell line stably co-expressing human GPR35 and Gα16. The format is cell-based. Set-up: expressed in transfected cells. How it is done: The Gα16-stably expressed cell line (Gα16/CHO cell line) as a host cell was prepared by transfecting the Gα16 expression vector (Guthrie cDNA Resource Center) into CHO cells in a conventional manner and incubating at 37° C. under 5% CO2 in αMEM medium (containing nucleic acid; Invitrogen) supplemented with 10% fetal calf serum (Invitrogen), 50 units/ml penicillin/50 ug/ml streptomycin (CAMBREX) and 1 mg/ml geneticin (Invitrogen). The cells that were incubated for 2 days in αMEM medium (containing nucleic acid) supplemented only with 10% fetal calf serum charged in a 75 cm^2 flask were used for the transfection. The transfection was carried out using Lipofectamine reagent (Invitrogen) by a modification of the protocol attached to the reagent. First, 2 centrifuge tubes each having a 15 ml volume were prepared and 600 μl each of Opti-MEM medium (Invitrogen) was dispensed in each tube. Next, 4.8 μg of the expression vector was charged in one tube and in another tube 36 μl of Lipofectamine reagent was charged, which were mixed together. The mixture was settled for 20 minutes at room temperature. […] The cells obtained were counted and diluted with αMEM medium (containing no nucleic acid; Invitrogen) supplemented only with 10% dialyzed fetal calf serum to have 0.3, 1.5 and 7.5 cells per 100 μl of the medium. […]

SMILES strings stand for the structures.

GPR35, sequence (Q9HC97 whole entry S294R): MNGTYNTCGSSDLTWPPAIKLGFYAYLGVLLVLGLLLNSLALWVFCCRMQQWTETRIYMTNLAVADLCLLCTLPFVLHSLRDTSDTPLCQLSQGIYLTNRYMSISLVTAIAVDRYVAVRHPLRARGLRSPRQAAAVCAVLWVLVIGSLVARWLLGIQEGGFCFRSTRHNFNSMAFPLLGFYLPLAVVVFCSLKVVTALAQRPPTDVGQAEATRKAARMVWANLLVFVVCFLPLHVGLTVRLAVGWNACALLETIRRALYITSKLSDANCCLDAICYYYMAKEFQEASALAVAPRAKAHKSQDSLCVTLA
T1 sequence (Q9ES90 whole entry S286F/D300Y): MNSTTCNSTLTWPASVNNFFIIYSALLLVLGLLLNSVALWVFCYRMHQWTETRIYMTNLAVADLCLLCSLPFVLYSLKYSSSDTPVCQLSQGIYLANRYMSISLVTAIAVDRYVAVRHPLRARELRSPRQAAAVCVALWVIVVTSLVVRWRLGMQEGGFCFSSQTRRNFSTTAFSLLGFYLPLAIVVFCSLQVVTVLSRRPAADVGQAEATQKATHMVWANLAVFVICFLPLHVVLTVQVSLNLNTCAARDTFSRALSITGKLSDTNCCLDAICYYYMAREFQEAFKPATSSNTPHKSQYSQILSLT

As for `O=C1N=c2cc([N+](=O)[O-])c([N+](=O)[O-])cc2=NC1=O` [DNQX, 6,7-dinitroquinoxaline-2,3-dione], the “reactivity of mouse GPR35 (FLIPR)” value at mouse GPR35 is “responsive”. For the same compound, the intracellular calcium levels result on GPR35 is on record as “increased”.
